Measurements from the NIST ThermoML archive (doi:10.1016/j.tca.2015.03.016).
Values joined by “and” are separate entries in the source; they are usually repeats but may differ in a detail not shown here. Identical values can stand only once.

Settings: Liquid, Transpiration method

CN(C)C1CCCCC1 [N,N-dimethylcyclohexylamine]
Settings | vapor or sublimation pressure
275.3 K | 0.0902 kPa and 0.0943 kPa
275.4 K | 0.0923 kPa
278.3 K | 0.1123 kPa
281.2 K | 0.1456 kPa
284.2 K | 0.1766 kPa
287.2 K | 0.2125 kPa
290.3 K | 0.2601 kPa
293.2 K | 0.3186 kPa
296.2 K | 0.383 kPa
299.2 K | 0.472 kPa
302.2 K | 0.5659 kPa
305.3 K | 0.6634 kPa
308.3 K | 0.8071 kPa
311.2 K | 0.912 kPa
314.3 K | 1.106 kPa

NC1CCCCC1 [cyclohexylamine]
Settings | vapor or sublimation pressure [kPa]
283.2 K | 0.4635
286.2 K | 0.5583
290.1 K | 0.7237
293.3 K | 0.9124
296.2 K | 1.06
298.1 K | 1.182
299.3 K | 1.28
302.3 K | 1.541
305.3 K | 1.788
308.3 K | 2.115

CNC1CCCCC1 [N-methylcyclohexylamine]
Settings | vapor or sublimation pressure [kPa]
275.2 K | 0.1412
278.2 K | 0.1788
281.2 K | 0.2211
284.2 K | 0.2727
287.2 K | 0.3362
290.4 K | 0.4224
293.2 K | 0.4889
296.2 K | 0.606
299.2 K | 0.7392
302.2 K | 0.8882
305.2 K | 1.044
308.3 K | 1.278
311.2 K | 1.51
314.2 K | 1.784

C1CCC(NC2CCCCC2)CC1 [N-cyclohexylcyclohexanamine]
Settings | vapor or sublimation pressure [kPa]
295.4 K | 0.00322
298.3 K | 0.00416
301.2 K | 0.0055
304.2 K | 0.00706
307.2 K | 0.00889
310.2 K | 0.01123
313.2 K | 0.01433
315.1 K | 0.0165
318.3 K | 0.02093
321.2 K | 0.02576
324.2 K | 0.03192
327.2 K | 0.03941
330.2 K | 0.0492
333.2 K | 0.05903
